The values below come from ChEMBL document CHEMBL5143614, “Structure-activity relationship of 2-aminodibenzothiophene pharmacophore and the discovery of aminobenzothiophenes as potent inhibitors of Mycobacterium smegmatis” (Bioorg Med Chem Lett, 2022).

Data set [1] relates to Mycolicibacterium smegmatis. Briefly: Antitubercular activity against Mycobacterium smegmatis ATCC 700084 after 48 hrs by microdilution assay. In kind it is functional. (In general: Broth dilution looks for growth in wells or tubes with falling amounts of substance.)
Data set [2] has as its system Mycobacterium tuberculosis. Briefly: Antitubercular activity against Mycobacterium tuberculosis H37Rv. Format: functional.
The test system of another data set is RWPE-1. In words: Cytotoxicity against human RWPE-1 cells assessed as cell viability at 50 ug/ml after 72 hrs by MTT assay. In kind it is toxicity, cell-based. Conditions: rwpe-1, 72 h, dose 50 µg/ml. (In general: Tetrazolium dyes change colour on reduction, which living cells bring about.)

Converted amounts (≈) assume the structure as drawn.

For `Nc1ccc2c(c1)-c1ccccc1C2`, the MIC in data set [1] stood at 25 µg/mL (≈ 138 µM); in data set [2], 32 µg/mL (≈ 177 µM).
Molecule `Nc1ccc2sccc2c1` yielded an MIC in data set [1] of 0.78 µg/mL (≈ 5.23 µM). The Activity entry with RWPE-1 was “Toxic”.
For `c1ccc2c(c1)sc1ccc(N3CCCC3)cc12`, the MIC in data set [1] was above 100 µg/mL.
`Nc1ccc2occc2c1` registered an MIC in data set [1] of 1.56 µg/mL (≈ 11.7 µM). Moreover, in the data set on RWPE-1, the Activity result was “Toxic”.
In the case of `c1ccc2c(c1)CCCN2c1ccc2sc3ccccc3c2c1`, the minimal inhibitory concentration (MIC) in data set [1] is above 100 µg/mL.
Regarding `Nc1ccc2ccsc2c1`, the minimal inhibitory concentration (MIC) in data set [1] amounted to 0.78 µg/mL (≈ 5.23 µM). The Activity entry in the data set with RWPE-1 is “Toxic”.
Take `Nc1ccc2c(c1)-c1cc(N)ccc1S2(=O)=O`: the MIC in data set [1] was above 100 µg/mL; in data set [2], below 2 µg/mL.
In data set [1], `Nc1ccc2sc3ccc(N)cc3c2c1` returned an MIC above 100 µg/mL.
Regarding `NNC(=O)c1ccncc1` [ISONIAZID], the MIC in data set [1] amounted to 3.13 µg/mL (≈ 22.8 µM).
Same read-out and setting: the value for `Nc1ccc2c(c1)-c1ccccc1S2(=O)=O` was above 100 µg/mL; that for `OB(O)c1cccc2c1sc1ccccc12` was above 100 µg/mL.
Regarding `Nc1ccc2[nH]c3ccccc3c2c1`, the MIC is above 100 µg/mL in data set [1] and 16 µg/mL (≈ 87.8 µM) in data set [2].
`O=S(=O)(Nc1ccc2sc3ccccc3c2c1)c1ccccc1` returned an MIC in data set [1] above 100 µg/mL.
`Nc1ccc2sc3ccccc3c2c1`: the minimal inhibitory concentration (MIC) was 3.13 µg/mL (≈ 15.7 µM) in data set [1] and 128 µg/mL (≈ 642 µM) in data set [2]. Moreover, in the data set with RWPE-1, the Activity entry was “Toxic”.
Molecule `CN(c1ccccc1)c1ccc2sc3ccccc3c2c1` registered an MIC in data set [1] above 100 µg/mL.
In data set [1], `c1ccc(Nc2ccc3sc4ccccc4c3c2)cc1` returned an MIC above 100 µg/mL.
Molecule `CCCCCCNc1ccc2sc3ccccc3c2c1` gave an MIC in data set [1] above 100 µg/mL.
For `c1ccc2c(c1)sc1ccc(-n3cccc3)cc12`, the MIC in data set [1] was above 100 µg/mL.
Turning to `Nc1ccc2oc3ccccc3c2c1`, the MIC in data set [1] was 3.13 µg/mL (≈ 17.1 µM); in data set [2] it was 64 µg/mL (≈ 349 µM). Also, the Activity entry with RWPE-1 is listed as “Toxic”.
In data set [1], `c1ccc2c(c1)CCN2c1ccc2sc3ccccc3c2c1` yielded an MIC above 100 µg/mL.
The molecule `c1ccc2c(c1)sc1ccc(NC3CCCCC3)cc12` had an MIC in data set [1] above 100 µg/mL.
For the molecule `Nc1ccc2[nH]ccc2c1`, the MIC in data set [1] is above 100 µg/mL.
Molecule `Nc1cccc2c1sc1ccccc12` gave an MIC in data set [1] of 12.5 µg/mL (≈ 62.7 µM).
The same measure, in the same setting: the same measure for `Nc1cccc2sccc12`: 50 µg/mL (≈ 335 µM).
Take `OB(O)c1ccc2sc3ccccc3c2c1`: in data set [1], the MIC was 50 µg/mL (≈ 219 µM).
Take `CCN(CC)c1ccc2sc3ccccc3c2c1`: the minimum inhibitory concentration (MIC) in data set [1] is above 100 µg/mL.
With `c1ccc2c(c1)sc1ccc(N3CCOCC3)cc12`, the MIC in data set [1] is above 100 µg/mL.
In turn, `CCNc1ccc2sc3ccccc3c2c1` came in with an MIC in data set [1] above 100 µg/mL.

One may read the MIC as the lowest concentration found to suppress growth. A low value points to a more susceptible organism.
